For 23 compounds, EC50 and IC50 results are on record in patent publication US20160002248A1, “GLS1 INHIBITORS FOR TREATING DISEASE” (Board of Regents, The University of Texas System, priority 2014, published 2016).

Bounds are passed on as bounds.

A word on the EC50: it is the concentration at which the effect is half-maximal. The term IC50 denotes the concentration that gives 50% inhibition.

Test [1] has as its system A549 cells. The test can be described thus: Proliferation Assay (A549 cell viability, Cell Titer Fluor). The test is classed as cell-based. The following applies: 72 hours. The essentials:
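Fluorescence read-out (Cell Titer Fluor, 30 min at 37 °C after reagent) after 72 h compound exposure of A549 cells; EC50 by four-parameter logistic curve fit. Cells: 1000/well, RPMI 1640 + 10% dialyzed FBS, 0.5% DMSO final.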

Test [2] addresses T1, purified recombinant human GAC (GLS1) (Homo sapiens, UniProt O94925).
T1 sequence (O94925 55-598 isoform O94925-3 limits assumed): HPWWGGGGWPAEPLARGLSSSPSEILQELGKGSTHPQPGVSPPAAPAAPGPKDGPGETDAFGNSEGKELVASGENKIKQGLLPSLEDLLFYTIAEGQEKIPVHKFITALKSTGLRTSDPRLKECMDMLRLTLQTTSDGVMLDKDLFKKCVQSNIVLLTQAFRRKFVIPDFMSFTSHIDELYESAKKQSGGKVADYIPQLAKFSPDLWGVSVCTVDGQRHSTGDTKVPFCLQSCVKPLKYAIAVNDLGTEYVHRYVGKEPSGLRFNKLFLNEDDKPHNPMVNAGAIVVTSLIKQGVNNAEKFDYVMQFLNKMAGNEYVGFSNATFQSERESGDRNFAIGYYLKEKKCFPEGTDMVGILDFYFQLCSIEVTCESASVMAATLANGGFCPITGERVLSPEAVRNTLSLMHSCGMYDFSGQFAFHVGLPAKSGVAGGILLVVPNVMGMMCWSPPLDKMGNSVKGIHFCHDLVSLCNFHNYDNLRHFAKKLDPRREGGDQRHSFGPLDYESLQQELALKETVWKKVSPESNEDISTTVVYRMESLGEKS
The test can be described thus: GLS1 Enzymatic Activity Assay (dual-coupled enzymatic assay). Format: biochemical. Put shortly: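 In this coupled fluorometric format, phosphate-activated GAC (2 nM, 50 mM phosphate) is pre-exposed to compound for 10 min before 1 mM glutamine addition. Product is tracked as resorufin (530/590 nm) over time or at 20 min, and potency is derived by logistic fitting.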

In test [1] (Homo sapiens), `Cc1ccc(CNC(=O)c2cn(CCCCc3cc4c(-c5ccc(C(F)(F)F)cc5)c(C5CC5)[nH]c4nn3)nn2)cn1` [Example 163, 1-(4-{6-cyclopropyl-5-[4-(trifluoromethyl)phenyl]-7H-pyrrolo[2,3-c]pyridazin-3-yl}butyl)-N-[(6-methylpyridin-3-yl)methyl]-1H-1,2,3-triazole-4-carboxamide] yielded an EC50 of 100 to 500 nM. Besides, in test [2], the IC50 is < 100 nM.

`O=C(Cc1ccccc1)Nc1ccn(CCCCc2cc3cc(C4CC4)[nH]c3nn2)c(=O)c1` [Example 29, N-[1-(4-{6-cyclopropyl-7H-pyrrolo[2,3-c]pyridazin-3-yl}butyl)-2-oxo-1,2-dihydropyridin-4-yl]-2-phenylacetamide]: the EC50 in test [1] (Homo sapiens) lay in the range of 500 to 5000 nM. Further, the IC50 in test [2] is 100 to 500 nM.

On to `O=C(NCc1cncc(C(F)(F)F)c1)c1cn(CCCCc2cc3c(-c4ccc(F)cc4F)c(C4CC4)[nH]c3nn2)nn1` [Example 221, 1-{4-[6-cyclopropyl-5-(2,4-difluorophenyl)-7H-pyrrolo[2,3-c]pyridazin-3-yl]butyl}-N-{[5-(trifluoromethyl)pyridin-3-yl]methyl}-1H-1,2,3-triazole-4-carboxamide], for which, in test [1] (Homo sapiens), the EC50 was < 100 nM. The IC50 in test [2] is < 100 nM.

Compound `O=C(Cc1ccccc1)Nc1ccn(CCCCc2cc3cc(Cc4ccccc4)[nH]c3nn2)c(=O)n1` [Example 62, N-[1-(4-{6-benzyl-7H-pyrrolo[2,3-c]pyridazin-3-yl}butyl)-2-oxo-1,2-dihydropyrimidin-4-yl]-2-phenylacetamide] displayed an EC50 in test [1] (Homo sapiens) of 500 to 5000 nM. In addition, the IC50 in test [2] was < 100 nM.

On to `O=C(NCc1cccc(OCC(F)(F)F)n1)c1cn(CCCCc2cc3cc(C4CC4)[nH]c3nn2)nn1` [Example 43, 1-(4-{6-cyclopropyl-7H-pyrrolo[2,3-c]pyridazin-3-yl}butyl)-N-{[6-(2,2,2-trifluoroethoxy)pyridin-2-yl]methyl}-1H-1,2,3-triazole-4-carboxamide], for which the EC50 in test [1] (Homo sapiens) was in the range of 500 to 5000 nM. Moreover, the IC50 in test [2] is < 100 nM.

`COc1ncc(-c2c(C3CC3)[nH]c3nnc(CCCCn4cc(C(=O)NCc5ccc(C)nc5)nn4)cc23)c(OC)n1` [Example 168, 1-{4-[6-cyclopropyl-5-(2,4-dimethoxypyrimidin-5-yl)-7H-pyrrolo[2,3-c]pyridazin-3-yl]butyl}-N-[(6-methylpyridin-3-yl)methyl]-1H-1,2,3-triazole-4-carboxamide]: the EC50 in test [1] (Homo sapiens) lay within 500 to 5000 nM. Further, the IC50 in test [2] is < 100 nM.

With `O=C(NCc1ncccn1)c1cn(CCCCc2cc3cc(C4CC4)[nH]c3nn2)nn1` [Example 38, 1-(4-{6-cyclopropyl-7H-pyrrolo[2,3-c]pyridazin-3-yl}butyl)-N-(pyrimidin-2-ylmethyl)-1H-1,2,3-triazole-4-carboxamide], in test [1] (Homo sapiens), the EC50 lay within 500 to 5000 nM. For the same compound, the IC50 in test [2] is 500 to 5000 nM.

For the compound `Cc1ccc(CNC(=O)c2cn(CCCCc3cc4c(-c5ccc(F)cc5F)c(C5CC5)[nH]c4nn3)nn2)cn1` [Example 147, 1-{4-[6-cyclopropyl-5-(2,4-difluorophenyl)-7H-pyrrolo[2,3-c]pyridazin-3-yl]butyl}-N-[(6-methylpyridin-3-yl)methyl]-1H-1,2,3-triazole-4-carboxamide], in test [1] (Homo sapiens), the 50% effective concentration (EC50) is < 100 nM. For the same compound, the IC50 in test [2] is < 100 nM.

Regarding `CC(=O)Nc1cccc(-c2c(C3CC3)[nH]c3nnc(CCCCn4cc(C(=O)NCc5ccccn5)nn4)cc23)c1` [Example 153], in test [1] (Homo sapiens), the EC50 was in the range of 500 to 5000 nM. In addition, in test [2], the IC50 was < 100 nM.

Take `COc1ccccc1-c1cc2cc(CCCCn3cc(C(=O)NCc4ccc(C)nc4)nn3)nnc2[nH]1` [Example 228, 1-{4-[6-(2-methoxyphenyl)-7H-pyrrolo[2,3-c]pyridazin-3-yl]butyl}-N-[(6-methylpyridin-3-yl)methyl]-1H-1,2,3-triazole-4-carboxamide]: in test [1] (Homo sapiens), the EC50 was < 100 nM. For the same compound, in test [2], the IC50 is < 100 nM.

In the case of `Cc1ccc(CNC(=O)c2cn(CCCCc3cc4cc(-c5ccccc5F)[nH]c4nn3)nn2)cn1` [Example 190, 1-{4-[6-(2-fluorophenyl)-7H-pyrrolo[2,3-c]pyridazin-3-yl]butyl}-N-[(6-methylpyridin-3-yl)methyl]-1H-1,2,3-triazole-4-carboxamide], the EC50 in test [1] (Homo sapiens) was < 100 nM. In addition, the IC50 in test [2] was < 100 nM.

Compound `O=C(NCc1ccccn1)c1cn(CCCCc2cc3c(-c4cncnc4)c(C4CC4)[nH]c3nn2)nn1` [Example 129, 1-(4-(6-cyclopropyl-5-(pyrimidin-5-yl)-7H-pyrrolo[2,3-c]pyridazin-3-yl)butyl)-N-(pyridin-2-ylmethyl)-1H-1,2,3-triazole-4-carboxamide] had an EC50 in test [1] (Homo sapiens) of 500 to 5000 nM. Moreover, in test [2], the IC50 was in the range of 100 to 500 nM.

Compound `Cc1ccc(CNC(=O)c2cn(CCCCc3cc4c(C5CC5)c(C5CC5)[nH]c4nn3)nn2)cn1` [Example 96, 1-(4-(5,6-dicyclopropyl-7H-pyrrolo[2,3-c]pyridazin-3-yl)butyl)-N-((6-methylpyridin-3-yl)methyl)-1H-1,2,3-triazole-4-carboxamide] came in with an EC50 in test [1] (Homo sapiens) of 100 to 500 nM. Further, the IC50 in test [2] is < 100 nM.

Take “N-(5-(4-(7H-pyrrolo[2,3-c]pyridazin-3-yl)butyl)-1,3,4-thiadiazol-2-yl)-2-phenylacetamide [Example 64]”: the EC50 in test [1] lay within 500 to 5000 nM. Further, the IC50 in test [2] is < 100 nM.

Regarding `COC(C)(C)CNC(=O)c1nnc(CCCCc2cc3cc(Cc4ccccc4)[nH]c3nn2)s1` [Example 84, 5-(4-{6-benzyl-7H-pyrrolo[2,3-c]pyridazin-3-yl}butyl)-N-(2-methoxy-2-methylpropyl)-1,3,4-thiadiazole-2-carboxamide], the EC50 in test [1] (Homo sapiens) lay in the range of 500 to 5000 nM. Also, in test [2], the IC50 was 100 to 500 nM.

The compound `CC(C)S(=O)(=O)N1CC(c2cc3cc(CCCCn4cc(C(=O)NCc5cc(OC(F)(F)F)ccc5F)nn4)nnc3[nH]2)C1` [Example 230, N-{[2-fluoro-5-(trifluoromethoxy)phenyl]methyl}-1-(4-{6-[1-(propane-2-sulfonyl)azetidin-3-yl]-7H-pyrrolo[2,3-c]pyridazin-3-yl}butyl)-1H-1,2,3-triazole-4-carboxamide] came in with an EC50 in test [1] (Homo sapiens) of 100 to 500 nM. In addition, the IC50 in test [2] is < 100 nM.

Take `O=C(NCCC(F)(F)F)c1nnc(CCCCc2cc3cc(Cc4ccccc4)[nH]c3nn2)s1` [Example 83, 5-(4-{6-benzyl-7H-pyrrolo[2,3-c]pyridazin-3-yl}butyl)-N-(3,3,3-trifluoropropyl)-1,3,4-thiadiazole-2-carboxamide]: in test [1] (Homo sapiens), the EC50 was > 5000 nM. Also, the IC50 in test [2] lay within 100 to 500 nM.

With `CC(C)(C)OC(=O)N1CC(c2cc3cc(CCCCn4cc(C(=O)NCc5cc(C(F)(F)F)ccn5)nn4)nnc3[nH]2)C1` [Example 194, tert-butyl 3-(3-{4-[4-({[4-(trifluoromethyl)pyridin-2-yl]methyl}carbamoyl)-1H-1,2,3-triazol-1-yl]butyl}-7H-pyrrolo[2,3-c]pyridazin-6-yl)azetidine-1-carboxylate], the EC50 in test [1] (Homo sapiens) is < 100 nM. The IC50 in test [2] is < 100 nM.

Compound `CC(=O)Nc1cccc(-c2c(C3CC3)[nH]c3nnc(CCCCn4cc(C(=O)NCc5ccc(C)nc5)nn4)cc23)c1` [Example 154, 1-{4-[6-cyclopropyl-5-(3-acetamidophenyl)-7H-pyrrolo[2,3-c]pyridazin-3-yl]butyl}-N-[(6-methylpyridin-3-yl)methyl]-1H-1,2,3-triazole-4-carboxamide] displayed an EC50 in test [1] (Homo sapiens) of 500 to 5000 nM. Also, in test [2], the IC50 is < 100 nM.

With `CC(=O)Nc1ccc(-c2c(C3CC3)[nH]c3nnc(CCCCn4cc(C(=O)NCc5cccc(OC(F)(F)F)c5)nn4)cc23)cc1` [Example 180, 1-{4-[6-cyclopropyl-5-(4-acetamidophenyl)-7H-pyrrolo[2,3-c]pyridazin-3-yl]butyl}-N-{[3-(trifluoromethoxy)phenyl]methyl}-1H-1,2,3-triazole-4-carboxamide], the EC50 in test [1] (Homo sapiens) is 500 to 5000 nM. In test [2], the IC50 is < 100 nM.

In test [1] (Homo sapiens), `O=C(NCc1cccnc1)c1cn(CCCCc2cc3cc(C4CC4)[nH]c3nn2)nn1` [Example 36, 1-(4-{6-cyclopropyl-7H-pyrrolo[2,3-c]pyridazin-3-yl}butyl)-N-(pyridin-3-ylmethyl)-1H-1,2,3-triazole-4-carboxamide] returned a half-maximal effective concentration (EC50) of 100 to 500 nM. For the same compound, in test [2], the IC50 lay within 100 to 500 nM.

In test [1] (Homo sapiens), `COc1cncc(CNC(=O)c2cn(CCCCc3cc4cc(C5CC5)[nH]c4nn3)nn2)c1` [Example 48, 1-(4-{6-cyclopropyl-7H-pyrrolo[2,3-c]pyridazin-3-yl}butyl)-N-[(5-methoxypyridin-3-yl)methyl]-1H-1,2,3-triazole-4-carboxamide] registered an EC50 of 500 to 5000 nM. In addition, in test [2], the IC50 was < 100 nM.

With `O=C(NCc1ccccn1)c1cn(CCCCc2cc3c(Cc4ccc(Cl)cc4)c(C4CC4)[nH]c3nn2)nn1` [Example 106, 1-(4-{5-[(4-chlorophenyl)methyl]-6-cyclopropyl-7H-pyrrolo[2,3-c]pyridazin-3-yl}butyl)-N-(pyridin-2-ylmethyl)-1H-1,2,3-triazole-4-carboxamide], the EC50 in test [1] (Homo sapiens) lay within 100 to 500 nM. Also, the IC50 in test [2] is < 100 nM.
